In article PMC12186844 (ACS Chemical Neuroscience, 2025):

Key:
D2LR [1] = biological target: T1, D2LR (Homo sapiens, UniProt P14416); test: inhibition of forskolin-stimulated cAMP production, BRET biosensor; assay type: cell-based;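 also: Flp-In-CHO cells stably expressing CAMYEL cAMP BRET sensor, agonist plus 10 µM forskolin, net BRET after forskolin-vehicle subtraction, parameters from complete operational model of allosterism and agonism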
Protocol: (§1) Flp-In-CHO cells stably coexpressing the CAMYEL biosensor and DRs were plated into white 96-well CulturPlates (Revvity) and grown overnight. The cells were equilibrated in Hank’s balanced salt solution (HBSS) at 37 °C (or 25 °C when indicated) before starting the experiment. The cells were costimulated with the agonists and 10 μM forskolin for the indicated time frames when the BRET readings were captured. Coelenterazine (Nanolight Technology, AZ) was added at a final concentration of 5 μM at least 3 min prior to measurement. […] Net BRET was determined by subtraction of the vehicle control coadded with 10 μM forskolin.
(§2) Dose–response curves were fitted using the following three-parameter equation: response=bottom+top−bottom/1+10^(logEC50−log[A]) 5 where top and bottom represent the maximal and minimal asymptote of the dose response curve, [A] is the molar concentration of the agonist, and EC50 is the molar concentration of the agonist required to give a response half-way between bottom and top.

D2LR [2] = biological target: T1, D2LR; test: cell membrane [3H]raclopride binding assay; conditions: for Logα_DA / α′_DA: cooperativity with DA
D2LR [3] = biological target: T1, D2LR; test: ERK1/2 phosphorylation assay; assay type: cell-based; conditions: pERK1/2
Protocol: Flp-In-CHO cells stably expressing the D2LR were seeded into 96-well plates at a density of 50,000 cells/well. After 5 h, cells were washed with phosphate-buffered saline (PBS) and incubated in serum-free DMEM overnight before assaying. […] Stimulation of the cells was terminated by removing the medium followed by the addition of 100 μL of SureFire lysis buffer (PerkinElmer) to each well. The plate was shaken for 5 min at RT before 5 μL of the lysates was transferred to a white 384-well ProxiPlate (PerkinElmer). Then, 8 μL of a 240:1440:7:7 mixture of Surefire activation buffer:Surefire reaction buffer:AlphaScreen acceptor beads:AlphaScreen donor beads was added to the samples and incubated in the dark at 37 °C for 1.5 h. Plates were read using a Fusion plate reader.

D2LR [4] = biological target: T1, D2LR; test: β-arrestin-2 recruitment BRET assay; assay type: cell-based
Protocol: Flp-In-CHO cells were seeded at a density of 2,000,000 cells per 10 cm dish and were transfected the following day using polyethylenimine as a transfection reagent. To assess β-arrestin-2 recruitment to the D2LR, the cells were transfected with 1 μg of Rluc8-tagged D2LR, 4 μg of YFP-β-arrestin-2, and 2 μg of GRK2. Twenty-four hours after transfection, the cells were plated into 96-well CulturPlates (PerkinElmer) and grown overnight. […] The cells were incubated with coelenterazine (Promega) at a final concentration of 5 μM for 5 min followed by stimulation with the agonists for an additional 5 min before the BRET readings were captured.

SNAP-D2SR F50^1.48A = SNAP-D2SR F50^1.48A (Homo sapiens, UniProt P14416, F50A); test: functional cAMP assay, BRET biosensor; assay type: cell-based; design: expressed in transfected cells
Protocol: as §1, §2

SNAP-D2SR L54^1.52A = SNAP-D2SR L54^1.52A (Homo sapiens, UniProt P14416, L54A); test: cell membrane [3H]spiperone assay
Protocol: (§3) Flp-In-CHO cells stably expressing the wild-type or mutant DRs were grown to 90% confluence in 175 cm^2 cell culture flasks. The cells were harvested in PBS containing 2 mM EDTA and centrifuged at 300g for 3 min. The resulting pellet was resuspended in ice-cold assay buffer (20 mM HEPES, 100 mM NaCl, 6 mM MgCl2, 1 mM EGTA, and 1 mM EDTA, pH 7.4), and the centrifugation step was repeated. The intact cell pellet was then resuspended in assay buffer and homogenized using a Polytron homogenizer. After centrifugation (1000g, 10 min), the pellet was discarded, and the supernatant was recentrifuged at 30,000g for 1 h at 4 °C using a Sorvall Evolution RC ultracentrifuge (Thermo Scientific). The resulting pellet was resuspended in assay buffer and stored in 250 μL aliquots at −80 °C. Membrane protein concentration was determined using a Pierce’s BCA protein assay kit (Thermo Fisher, Melbourne).
(§4) [^3H]­Spiperone binding experiments using cell membranes were conducted in a 200 μL reaction volume in assay buffer (20 mM HEPES, 100 mM NaCl, 6 mM MgCl2, 1 mM EGTA, and 1 mM EDTA, pH 7.4) containing 100 μM GppNHp and 0.1% ascorbic acid in 96-well plates. […] In all cases, nonspecific binding was determined in the presence of 10 μM haloperidol. […] Filter bound radioactivity was detected as a chemiluminescence after the addition of MicroScint-20 (Revvity) in a MicroBeta plate counter (Revvity). […]

SNAP-D2SR F404^8.50A = SNAP-D2SR F404^8.50A (Homo sapiens, UniProt P14416, F433A); test: cell membrane [3H]spiperone assay
Protocol: as §3, §4

D3R = D3R (Homo sapiens, UniProt P35462); test: cell membrane [3H]raclopride binding assay
Protocol: as §3
[^3H]­Spiperone binding experiments using cell membranes were conducted in a 200 μL reaction volume in assay buffer (20 mM HEPES, 100 mM NaCl, 6 mM MgCl2, 1 mM EGTA, and 1 mM EDTA, pH 7.4) containing 100 μM GppNHp and 0.1% ascorbic acid in 96-well plates. […] In all cases, nonspecific binding was determined in the presence of 10 μM haloperidol. To obtain affinity estimates of unlabeled agonists, competition binding experiments were performed at equilibrium. […] After this incubation period, bound and free radioligands were separated by fast-flow filtration through UniFilter-96 GF/B plates using a MicroBeta FilterMate harvester (Revvity) followed by three washes with ice-cold 0.9% NaCl. Filter bound radioactivity was detected as a chemiluminescence after the addition of MicroScint-20 (Revvity) in a MicroBeta plate counter (Revvity).

[5] = with S-(3)-PPP, listed as D2 PAM
[6] = +0.1 mM GppNHp, cooperativity with [3H]raclopride
[7] = +PTX, cooperativity with [3H]raclopride
[8] = +urea, cooperativity with [3H]raclopride

Chain of D3R (P35462 whole entry): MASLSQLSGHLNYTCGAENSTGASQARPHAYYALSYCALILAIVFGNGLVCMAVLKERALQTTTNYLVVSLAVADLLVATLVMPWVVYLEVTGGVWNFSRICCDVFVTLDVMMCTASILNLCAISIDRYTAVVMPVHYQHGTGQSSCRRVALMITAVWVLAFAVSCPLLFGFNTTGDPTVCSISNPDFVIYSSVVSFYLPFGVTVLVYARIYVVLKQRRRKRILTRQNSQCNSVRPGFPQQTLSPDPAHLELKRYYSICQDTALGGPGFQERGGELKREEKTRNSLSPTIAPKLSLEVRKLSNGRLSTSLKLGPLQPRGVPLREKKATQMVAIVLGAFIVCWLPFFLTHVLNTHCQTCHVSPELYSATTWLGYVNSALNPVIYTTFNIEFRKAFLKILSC
T1 sequence (P14416 whole entry): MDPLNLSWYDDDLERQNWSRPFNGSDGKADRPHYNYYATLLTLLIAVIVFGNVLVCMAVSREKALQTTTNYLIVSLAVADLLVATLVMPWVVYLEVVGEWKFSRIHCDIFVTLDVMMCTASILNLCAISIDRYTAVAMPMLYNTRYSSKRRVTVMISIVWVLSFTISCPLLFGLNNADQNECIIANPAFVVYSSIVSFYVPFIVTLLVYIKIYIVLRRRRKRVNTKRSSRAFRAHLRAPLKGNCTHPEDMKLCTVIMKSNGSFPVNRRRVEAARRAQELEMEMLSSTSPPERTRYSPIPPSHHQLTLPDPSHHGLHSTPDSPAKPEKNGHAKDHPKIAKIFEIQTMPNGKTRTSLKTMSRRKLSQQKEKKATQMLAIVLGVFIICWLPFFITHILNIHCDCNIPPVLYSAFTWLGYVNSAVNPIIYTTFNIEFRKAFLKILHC
Chain of SNAP-D2SR F50^1.48A (P14416 1-414 isoform P14416-2 F50A): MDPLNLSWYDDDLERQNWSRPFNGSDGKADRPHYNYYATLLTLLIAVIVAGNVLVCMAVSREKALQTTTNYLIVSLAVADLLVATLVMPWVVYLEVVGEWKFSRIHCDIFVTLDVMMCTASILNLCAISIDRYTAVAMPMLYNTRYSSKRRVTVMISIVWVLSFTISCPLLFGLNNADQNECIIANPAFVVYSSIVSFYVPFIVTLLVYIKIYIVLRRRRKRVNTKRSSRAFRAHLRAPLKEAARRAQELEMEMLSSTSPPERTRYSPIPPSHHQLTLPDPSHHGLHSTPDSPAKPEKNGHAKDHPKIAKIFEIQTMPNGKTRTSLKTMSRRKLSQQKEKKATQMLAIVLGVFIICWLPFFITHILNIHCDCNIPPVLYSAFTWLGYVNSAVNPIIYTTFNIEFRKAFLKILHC
Chain of SNAP-D2SR L54^1.52A (P14416 1-414 isoform P14416-2 L54A): as the sequence (P14416 1-414 isoform P14416-2 F50A) above, with A50F, L54A counted along it
Chain of SNAP-D2SR F404^8.50A (P14416 1-414 isoform P14416-2 F404A): as the sequence (P14416 1-414 isoform P14416-2 F50A) above, with A50F, F404A counted along it

agonism, fold lower than that of aripiprazole (D2LR [1]; D2 PAM2 alone, high D2R expression levels): approximately 2 fold
pKB (D2LR [1]; cAMP): 5.37 ± 0.04
LogτB (D2LR [1]; cAMP, intrinsic efficacy): -0.96 ± 0.04
Logαβ (D2LR [1]; cAMP, with dopamine): 1.41 ± 0.04
Kb (D2LR [1]; operational model of allostery, with DA): 5.5 µM
Logαβ (D2LR [1]; with S-(3)-PPP): 1.46 ± 0.16
Logβ (D2LR [1]; with S-(3)-PPP): 1.06
β (D2LR [1]; with S-(3)-PPP): 11.5
αβ (D2LR [1]; [5]): 28
β (D2LR [1]; [5]): 11
Logαβ (D2LR [1]; with apomorphine): 1.21 ± 0.13
Logβ (D2LR [1]; with apomorphine): 0.16
αβ (D2LR [1]; with apomorphine): 16
β (D2LR [1]; with apomorphine): 1.4
Logαβ (D2LR [1]; with aripiprazole): 1.61 ± 0.14
Logβ (D2LR [1]; with aripiprazole): 1.18
αβ (D2LR [1]; with aripiprazole): 41
β (D2LR [1]; with aripiprazole): 15
Logαβ (D2LR [1]; with bromocriptine): 0.76 ± 0.13
Logβ (D2LR [1]; with bromocriptine): 0.49
αβ (D2LR [1]; with bromocriptine): 5.8
β (D2LR [1]; with bromocriptine): 3.1
Logαβ (D2LR [1]; with dopamine): 1.35 ± 0.10
Logβ (D2LR [1]; with dopamine): 0.02
αβ (D2LR [1]; with dopamine): 22
β (D2LR [1]; with dopamine): 1
β (D2LR [1]; with dopamine, listed as D2 PAM): 1.0
Logαβ (D2LR [1]; with lisuride): 0.66 ± 0.06
Logβ (D2LR [1]; with lisuride): 0.11
αβ (D2LR [1]; with lisuride): 4.6
β (D2LR [1]; with lisuride): 1.3
Logαβ (D2LR [1]; with pergolide): 1.50 ± 0.15
Logβ (D2LR [1]; with pergolide): 0.26
αβ (D2LR [1]; with pergolide): 32
β (D2LR [1]; with pergolide): 1.8
Logαβ (D2LR [1]; with pramipexole): 1.37 ± 0.12
Logβ (D2LR [1]; with pramipexole): 0.16
αβ (D2LR [1]; with pramipexole): 23
β (D2LR [1]; with pramipexole): 1.4
Logαβ (D2LR [1]; with ropirinole): 1.67 ± 0.12
Logβ (D2LR [1]; with ropirinole): 0.53
αβ (D2LR [1]; with ropirinole): 47
β (D2LR [1]; with ropirinole): 3.4
Logαβ (D2LR [1]; with rotigotine): 1.17 ± 0.09
Logβ (D2LR [1]; with rotigotine): -0.20
αβ (D2LR [1]; with rotigotine): 15
β (D2LR [1]; with rotigotine): 0.6
fold lower affinity in cell membranes than in whole cell binding (D2LR [2]): 4 fold
pKB_D2 PAM (D2LR [2]; +0.1 mM GppNHp): 4.65 ± 0.05
Logα_DA (D2LR [2]; +0.1 mM GppNHp): 1.30 ± 0.02
α′_DA (D2LR [2]; +0.1 mM GppNHp): 20
Logα_[3H]raclo (D2LR [2]; [6]): –0.19 ± 0.05
α_[3H]raclo (D2LR [2]; [6]): 0.65
Kb (D2LR [2]; +0.1 mM GppNHp, read-out: KB_D2 PAM (converted)): 22.5 µM
pKB_D2 PAM (D2LR [2]; +PTX): 4.54 ± 0.03
Logα_DA (D2LR [2]; +PTX): 1.22 ± 0.07
α′_DA (D2LR [2]; +PTX): 17
Logα_[3H]raclo (D2LR [2]; [7]): –0.37 ± 0.10
α_[3H]raclo (D2LR [2]; [7]): 0.42
Kb (D2LR [2]; +PTX, read-out: KB_D2 PAM (converted)): 29 µM
pKB_D2 PAM (D2LR [2]; +urea): 4.53 ± 0.15
Logα_DA (D2LR [2]; +urea): 1.35 ± 0.12
α′_DA (D2LR [2]; +urea): 22
Logα_[3H]raclo (D2LR [2]; [8]): –0.06 ± 0.08
α_[3H]raclo (D2LR [2]; [8]): 0.87
Kb (D2LR [2]; +urea, read-out: KB_D2 PAM (converted)): 30 µM
logα_DA (D2LR [2]; D2LR): 1.30 ± 0.02
logα_[3H]raclo (D2LR [2]; D2LR): -0.19 ± 0.05
α_DA (D2LR [2]; D2LR): 20
α_[3H]raclo (D2LR [2]; D2LR): 0.64
Kb (D2LR [2]; cell membrane preparations, read-out: KB): 22 µM
pKB (D2LR [3]): 5.36 ± 0.13
LogτB (D2LR [3]; intrinsic efficacy): 0.18 ± 0.03
Logαβ (D2LR [3]; with dopamine): 1.37 ± 0.12
pKB (D2LR [4]): 5.18 ± 0.12
LogτB (D2LR [4]; intrinsic efficacy): -1.30 ± 0.16
Logαβ (D2LR [4]; with dopamine): 1.52 ± 0.12
D2 PAM2 log τ (SNAP-D2SR F50^1.48A): –1.35 ± 0.22
D2 PAM2 pKB (SNAP-D2SR F50^1.48A): 5.32 ± 0.28
D2 PAM2 τ (SNAP-D2SR F50^1.48A): 0.04
fold decrease in cooperativity with DA (SNAP-D2SR F50^1.48A; cAMP): 7 fold
Kb (SNAP-D2SR F50^1.48A; read-out: D2 PAM2 KB (converted)): 5 µM
D2 PAM2 log αβ (SNAP-D2SR F50^1.48A; with DA): 0.39 ± 0.07
D2 PAM2 αβ (SNAP-D2SR F50^1.48A; with DA): 2.5
fold shift + 10 μM PAM (SNAP-D2SR L54^1.52A; shift of DA IC50): 1.3 fold
ΔpIC50 + 10 μM PAM (SNAP-D2SR L54^1.52A; shift of DA pIC50): 0.10 ± 0.11
fold shift + 10 μM PAM (SNAP-D2SR F404^8.50A; shift of DA IC50): 1.5 fold
ΔpIC50 + 10 μM PAM (SNAP-D2SR F404^8.50A; shift of DA pIC50): 0.19 ± 0.18
Kb (D3R): 17 µM
logα_DA (D3R): 0.98 ± 0.02
logα_[3H]raclo (D3R): -0.14 ± 0.04
pKB (D3R): 4.77 ± 0.14
α_DA (D3R): 9.5
α_[3H]raclo (D3R): 0.72
Compound: COc1cc(CO)c(F)cc1C(=O)n1ccc2c(F)cccc21 [D2 PAM2, [5-fluoro-4-(hydroxymethyl)-2-methoxyphenyl]-(4-fluoro-1H-indol-1-yl)methanone]
